Our source for the IC50 and Activity values is ChEMBL document CHEMBL1146819, “Synthesis and SAR of 2-arylbenzoxazoles, benzothiazoles and benzimidazoles as inhibitors of lysophosphatidic acid acyltransferase-beta” (Bioorg Med Chem Lett, 2004).

SMILES strings stand for the structures. Activity calls are given as the source filed them.

For assay [1], the target named is T1, 1-acyl-sn-glycerol-3-phosphate acyltransferase beta (Homo sapiens, UniProt O15120).
T1 sequence (O15120 whole entry): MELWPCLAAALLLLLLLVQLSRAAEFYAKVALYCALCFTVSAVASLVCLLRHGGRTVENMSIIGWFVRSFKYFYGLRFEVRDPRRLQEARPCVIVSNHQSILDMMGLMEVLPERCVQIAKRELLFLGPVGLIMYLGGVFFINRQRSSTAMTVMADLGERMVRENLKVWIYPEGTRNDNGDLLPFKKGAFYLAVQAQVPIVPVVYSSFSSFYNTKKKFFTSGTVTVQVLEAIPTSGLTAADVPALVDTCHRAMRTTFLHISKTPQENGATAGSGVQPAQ
Briefly: Inhibitory concentration against human lysophosphatidic acid acyltransferase-beta (LPAAT-beta) expressed in Sf9 insect cell membranes.

In assay [2] the target is T2, 1-acyl-sn-glycerol-3-phosphate acyltransferase alpha (Homo sapiens) (UniProt Q99943).
T2 sequence (whole entry): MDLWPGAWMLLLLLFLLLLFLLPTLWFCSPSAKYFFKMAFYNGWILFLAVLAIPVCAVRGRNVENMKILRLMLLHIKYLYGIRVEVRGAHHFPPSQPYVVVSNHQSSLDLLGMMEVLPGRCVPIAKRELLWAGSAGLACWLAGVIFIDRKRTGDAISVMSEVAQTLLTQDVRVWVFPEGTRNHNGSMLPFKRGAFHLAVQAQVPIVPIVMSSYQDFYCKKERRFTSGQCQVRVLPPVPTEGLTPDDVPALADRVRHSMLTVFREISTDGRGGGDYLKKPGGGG
The assay is described as follows: Inhibitory activity against human lysophosphatidic acid acyltransferase-alpha (LPAAT-alpha) expressed in Sf9 insect cell membranes at <20 uM; Not active.

The subject of another assay is MCF7. Briefly: In vitro inhibitory concentration of compound against proliferation of MCF-7 breast carcinoma cells. It counts as functional, cell-based. As to conditions: Homo sapiens.
In the next assay the test system is DU-145. The assay is described as follows: In vitro inhibitory concentration of compound against proliferation of DU145 prostate carcinoma cells. It counts as functional, cell-based. As to conditions: Homo sapiens.

On to `Cc1ccc2oc(-c3cc(NC(=O)c4ccccc4)ccc3Cl)nc2c1`, for which the IC50 (usually the midpoint of a concentration-inhibition curve) in assay [1] amounted to 40000 nM. In assay [2], the outcome was inactive.
On to `C#CCOC(=O)Nc1ccc(Cl)c(-c2nc3cc(Cl)ccc3o2)c1`, for which the IC50 in the assay on MCF7 is 15000 nM; in the assay with DU-145, 50000 nM. Further, in assay [2], the outcome was inactive.
In the case of `COC(=O)Nc1ccc(C)c(-c2nc3cc(C)ccc3o2)c1`, the result in assay [2] was inactive.
In assay [1], `CCCOC(=O)Nc1ccc(Cl)c(-c2nc3cc(C)ccc3o2)c1` registered an IC50 of 12000 nM. Also, the result in assay [2] was inactive.
The molecule `COC(=O)Nc1ccc(Cl)c(-c2nc3c(C)cccc3s2)c1` returned an IC50 in assay [1] of 9000 nM. For the same molecule, the result in assay [2] was inactive.
`COC(=O)Nc1ccc(Cl)c(-c2nc3c(C)cccc3o2)c1` came in with an IC50 in assay [1] of 500 nM. Moreover, the outcome in assay [2] was inactive.
The matching figures for `CC#CC(=O)Nc1ccc(Cl)c(-c2nc3cc(Cl)ccc3o2)c1`: above 20000 nM and “inactive”.
`Cc1ccc2oc(-c3cc(NC(=O)CC#N)ccc3Cl)nc2c1` yielded an IC50 in assay [1] of 100 nM. Besides, the result in assay [2] was inactive.
For the molecule `Cc1ccc2oc(-c3cc(NC(=O)OC(C)C)ccc3Cl)nc2c1`, in assay [1], 16000 nM corresponded to half-maximal inhibition (IC50). Further, the result in assay [2] was inactive.
Consider `COC(=O)Nc1ccc(OC)c(-c2nc3cc(C)ccc3o2)c1`, for which, in assay [1], the IC50 was 64000 nM. Besides, the result in assay [2] was inactive.
Regarding `CN(C)CC(=O)Nc1ccc(Cl)c(-c2nc3cc(Cl)ccc3o2)c1`, the IC50 in assay [1] is above 5000 nM. Besides, the outcome in assay [2] was inactive.
`C#CCOC(=O)Nc1ccc(Cl)c(-c2nc3c(C)cccc3o2)c1`: in assay [2], the result was inactive.
In turn, `N#CCC(=O)Nc1ccc(Cl)c(-c2nc3cc(Cl)ccc3o2)c1` displayed an IC50 in assay [1] of 27 nM. Moreover, the outcome in assay [2] was inactive.
Regarding `CCC(=O)Nc1ccc(Cl)c(-c2nc3cc(C)ccc3o2)c1`, the IC50 in the assay with MCF7 stood at 40000 nM; in assay [1] it was 1500 nM; in the assay on DU-145, 40000 nM. In addition, the result in assay [2] was inactive.
`Cc1ccc2oc(-c3cc(NC(=O)CO)ccc3Cl)nc2c1` displayed an IC50 in assay [1] of 31000 nM. The result in assay [2] was inactive.
In assay [1], `CNCC(=O)Nc1ccc(Cl)c(-c2nc3cc(Cl)ccc3o2)c1` displayed an IC50 above 5000 nM. Also, the result in assay [2] was inactive.
`[N-]=[N+]=NCC(=O)Nc1ccc(Cl)c(-c2nc3cc(Cl)ccc3o2)c1` yielded an IC50 in assay [1] of 170 nM. In addition, in assay [2], the outcome was inactive.
On the same counts, the results for `CC(=O)Nc1ccc(Cl)c(-c2nc3cc(C)ccc3o2)c1` are 2500 nM and “inactive”.
As to `C#CCOC(=O)Nc1ccc(Cl)c(-c2nc3cc(Cl)ccc3n2C)c1`, the result in assay [2] was inactive.
The molecule `Cc1ccc2oc(-c3cc(NC=O)ccc3Cl)nc2c1` came in with a half-inhibitory concentration (IC50) in assay [1] above 5000 nM. Further, the result in assay [2] was inactive.
For `C#CCOC(=O)Nc1ccc(Cl)c(-c2nc3cc(C(F)(F)F)ccc3o2)c1`, in assay [2], the outcome was inactive.
Turning to `COC(=O)Nc1ccc(Cl)c(-c2nc3ccc(C)cc3n2C)c1`, the IC50 in assay [1] was above 20000 nM. Also, the result in assay [2] was inactive.
As for `COC(=O)Nc1ccc(Cl)c(-c2nc3cc(-c4ccccc4)ccc3o2)c1`, inhibition in assay [1] was half-maximal at 64000 nM (IC50). Also, the result in assay [2] was inactive.
As for `C#CCOC(=O)Nc1ccc(Cl)c(-c2nc3cc(C(F)(F)F)ccc3n2C)c1`, the concentration for half-maximal inhibition (IC50) in assay [1] is 120 nM. In addition, the outcome in assay [2] was inactive.
In turn, `COC(=O)Nc1ccc(Cl)c(-c2nc3cc(Cl)ccc3n2C)c1` gave an IC50 in assay [1] of 650 nM. Moreover, in assay [2], the result was inactive.
`COC(=O)Nc1ccc(F)c(-c2nc3cc(C)ccc3o2)c1` showed an IC50 in assay [1] above 64000 nM. The outcome in assay [2] was inactive.
`Cc1ccc2oc(-c3cc(NCCCC#N)ccc3Cl)nc2c1` came in with an IC50 in assay [1] above 5000 nM.
The molecule `C#CCNC(=O)Nc1ccc(Cl)c(-c2nc3cc(Cl)ccc3o2)c1` registered an IC50 in assay [1] of 100 nM. In addition, the outcome in assay [2] was inactive.
In assay [1], `COC(=O)Nc1ccc(Cl)c(-c2nc3ccc(C)cc3s2)c1` displayed an IC50 above 64000 nM. The outcome in assay [2] was inactive.
In assay [1], `COC(=O)Nc1cccc(-c2nc3cc(C)ccc3o2)c1` showed an IC50 above 64000 nM. The result in assay [2] was inactive.
Take `CCCC(=O)Nc1ccc(Cl)c(-c2nc3cc(C)ccc3o2)c1`: the 50% inhibitory concentration (IC50) in assay [1] worked out at 2500 nM. Also, the outcome in assay [2] was inactive.
For `COC(=O)Nc1ccc(Cl)c(-c2nc3ccc(C)cc3o2)c1`, the IC50 in assay [1] worked out at 400 nM. Further, in assay [2], the result was inactive.
With `C#CCOC(=O)Nc1ccc(Cl)c(-c2nc3cc(Cl)ccc3s2)c1`, the concentration for half-maximal inhibition (IC50) in the assay with MCF7 and in the assay on DU-145 was above 50000 nM throughout. Also, the outcome in assay [2] was inactive.
Regarding `Cn1c(-c2cc(NC(=O)CC#N)ccc2Cl)nc2cc(Cl)ccc21`, the IC50 in assay [1] was 300 nM. For the same molecule, the outcome in assay [2] was inactive.
On the same counts, the results for `C#CCOC(=O)Nc1ccc(C)c(-c2nc3cc(Cl)ccc3o2)c1` are 100 nM and “inactive”.
On the same counts, the results for `C#CCOC(=O)Nc1ccc(Cl)c(-c2nc3cc(C(F)(F)F)ccc3[nH]2)c1` are 5200 nM and “inactive”.
The matching figures for `C#CCOC(=O)Nc1ccc(C)c(-c2nc3cc(Cl)ccc3s2)c1`: 15 nM and “inactive”.
For `COC(=O)Nc1ccc(Cl)c(-c2nc3cc(Cl)ccc3o2)c1`, the outcome in assay [2] was inactive.
Same read-out and setting: to `C#CCOC(=O)Nc1ccc(Cl)c(-c2nc3cc(C)ccc3o2)c1` belongs “inactive”.
In turn, `Cc1ccc(NC(=O)CC#N)cc1-c1nc2ccccc2s1` returned an IC50 in assay [1] of 70 nM. Besides, the result in assay [2] was inactive.
With `COC(=O)Nc1ccc(Cl)c(-c2nc3cc(C(F)(F)F)ccc3o2)c1`, the 50% inhibitory concentration (IC50) in assay [1] came to 800 nM. Also, the result in assay [2] was inactive.
The matching figures for `C#CCCC(=O)Nc1ccc(Cl)c(-c2nc3cc(C)ccc3o2)c1`: 500 nM and “inactive”.
Regarding `C#CCCC(=O)Nc1ccc(Cl)c(-c2nc3cc(Cl)ccc3o2)c1`, the IC50 in assay [1] is 100 nM. Moreover, the outcome in assay [2] was inactive.
As to `N#CCC(=O)Nc1ccc(Cl)c(-c2nc3cc(Cl)ccc3s2)c1`, in assay [2], the result was inactive.
In turn, `COC(=O)Nc1ccc(Cl)c(-c2nc3cc(C)ccc3o2)c1` showed an IC50 in assay [1] of 1000 nM. Besides, in assay [2], the result was inactive.
Consider `COC(=O)Nc1ccc(Cl)c(-c2nc3cc(C(=O)O)ccc3o2)c1`, for which the IC50 in assay [1] is above 20000 nM. Also, the outcome in assay [2] was inactive.
In turn, `C#CCCOC(=O)Nc1ccc(Cl)c(-c2nc3cc(Cl)ccc3o2)c1` registered an IC50 in assay [1] of 75 nM. Besides, in assay [2], the result was inactive.
The molecule `COC(=O)Nc1ccc(Cl)c(-c2nc3cc(O)ccc3o2)c1` had an IC50 in assay [1] above 20000 nM. Further, in assay [2], the result was inactive.
On to `COC(=O)Nc1ccc(Cl)c(-c2nc3cc(C(F)(F)F)ccc3s2)c1`, for which the result in assay [2] was inactive.
`COC(=O)Nc1ccc(Cl)c(-c2nc3cc(C)ccc3n2C)c1` displayed an IC50 in assay [1] of 11000 nM. For the same molecule, the result in assay [2] was inactive.
In turn, `CCOC(=O)Nc1ccc(Cl)c(-c2nc3cc(C)ccc3o2)c1` yielded a concentration for half-maximal inhibition (IC50) in assay [1] of 1500 nM. Also, in assay [2], the outcome was inactive.
Consider `C#CCOC(=O)Nc1ccc(Cl)c(-c2nc3cc(O)ccc3o2)c1`, for which the IC50 in assay [1] turned out to be 2000 nM. In addition, the outcome in assay [2] was inactive.
Regarding `C#CCOC(=O)Nc1ccc(Cl)c(-c2nc3ccccc3o2)c1`, the figures for the IC50 in the assay with MCF7 and in the assay on DU-145 were 20000 nM and 50000 nM, respectively. Besides, the result in assay [2] was inactive.
In assay [1], `COC(=O)Nc1ccc(C)c(-c2nc3cc(Cl)ccc3o2)c1` registered an IC50 of 550 nM. Moreover, in assay [2], the result was inactive.
For the molecule `Cc1cc(-c2nc3ccccc3s2)ccc1N`, the half-maximal inhibitory concentration (IC50) in assay [1] is above 40000 nM.
For `CC#CCOC(=O)Nc1ccc(Cl)c(-c2nc3cc(Cl)ccc3o2)c1`, half-maximal inhibition in assay [1] (IC50) was put at 75 nM. The result in assay [2] was inactive.
On the same counts, the results for `CNC(=O)Nc1ccc(Cl)c(-c2nc3cc(Cl)ccc3o2)c1` are 950 nM and “inactive”.
Molecule `N#CCC(=O)Nc1ccc(Cl)c(-c2nc3cc(C(F)(F)F)ccc3s2)c1` registered an IC50 in assay [1] of 50 nM. The result in assay [2] was inactive.
The matching figures for `CC#CC(=O)Nc1ccc(Cl)c(-c2nc3cc(C)ccc3o2)c1`: above 20000 nM and “inactive”.
For the molecule `COC(=O)Nc1ccc(Cl)c(-c2nc3cc(Cl)ccc3s2)c1`, the outcome in assay [2] was inactive.
In assay [1], `C=CCOC(=O)Nc1ccc(Cl)c(-c2nc3cc(C)ccc3o2)c1` returned an IC50 of 1400 nM. Also, in assay [2], the outcome was inactive.
`Cc1ccc2oc(-c3cc(NC(=O)CN=[N+]=[N-])ccc3Cl)nc2c1` returned an IC50 in assay [1] of 600 nM. Also, the result in assay [2] was inactive.
For the molecule `COC(=O)Nc1ccc(Cl)c(-c2nc3ccccc3o2)c1`, the result in assay [2] was inactive.
